Experimental data published in patent US11213522B2, “Autoimmune-induced glutamatergic receptor dysfunction methods and treatments” (SARAH HERZOG MEMORIAL HOSPITAL EZRAT NASHIM ASSOCIATION, priority 2013, dated 2022).

Columns and labels:
[1] = system: patient positive for anti-NR1 NMDAR antibodies; experiment: Quality of Life Scale (QLS), D-serine clinical trial; format: in vivo, human; conditions: for QLS Symptoms/side-effects: week 0 score 15.63; for QLS Motivation/energy: week 0 score 42.86; for QLS Psychosocial: week 0 score 60
Excerpt: (§1) Out of the seventeen patients that entered the study, the serum of one patient was strongly positive at both serum sample dilutions for the presence of both IgG and IgM classes of anti-NR1 NMDAR antibodies. The patient was a single person having a diagnosis of schizophrenia according to DSM-IV-R criteria (American Psychiatric Association, 2000 Diagnostic and Statistical Manual of Mental Disorders-(DSM-IV-TR), 4th edition. American Psychiatric Association Washington D.C. (Text Revision)). There was no history of mental disorder in the patient's family. The patient had completed post-high school studies and had worked as a secretary. After a period of continuous headaches, for which no organic basis had been found, they had abruptly developed an acute psychosis characterized by grandiose and paranoid delusions, mystical thinking, […] affect and agitation, They had been hospitalized in a psychiatric hospital and underwent treatment with antipsychotic drugs and electroconvulsive therapy with only partial response. The patient had never returned to their previous functional and except for short attempts at living in the community, has been hospitalized ever since. They have been refractory to treatment with various classes of antipsychotic drugs, was not diagnosed with any medical or neurological disorder and was maintained on sulpiride 50 mg/day, citalopram 40 mg/day, lorazepam 1 mg/day and promethazine 50 mg/day. […] DSR is a naturally occurring amino acid that acts in vivo as an obligatory co-agonist at the glycine modulatory site associated with NMDAR. […] Both acute and chronic administration of 1-2 g DSR in humans is known to result in ≥100 times increases in DSR serum levels (Kantrowitz et al., 2010, Schizophr Res121:125-30; Heresco-Levy et al., 2005, Biol Psychiatry 57:577-85). The trial consisted of two periods, starting with a 2 week lead-in/stabilization period (-2-0) following which the patient was entered in the second period of the study which consisted of a 6 week (0-6), open-label, fixed dose therapy phase. During this phase, the patient received adjuvant treatment with DSR, whose dose was increased from 1500 mg/day (week 1) to 2000 mg/day (weeks 2 and 3) to 3000 mg/day (weeks 4 and 5) and to 4000 mg/day (week 6). The doses of the ongoing medication received by the patient remained fixed throughout the study and no changes in medication were performed. The assessment procedures used in the study included clinical and neurocognitive examinations. Motor and psychiatric symptoms as well as side-effects were rated biweekly throughout the study. The following instruments were used: 1) Positive and Negative Syndrome Scale (PANSS) (Kay et al., 1987, Positive and Negative Syndrome Scale (PANSS) rating manual. San Rafael California: Social and Behavioral Sciences Documents); 2) Quality of Life Scale (QLS) (Wilkinson et al., 2000, Self-report quality of life measure for people with schizophrenia: the SQLS. Br J Psychiatry 177:42-6); 3) Abnormal Involuntary Movement Scale (AIMS) (Guy, 1976, ECDEU Assessment Manual for Psychopharmacology-Revised. Rockville, Md.: US Dept. of Health, Education and Welfare); 4) Simpson Angus Scale for Extrapyramidal Symptoms (SAS) (Simpson and Angus, 1970, Acta Psychiatr Scand Suppl. 212:11-9); and 5) Udvalg for […] Undersogelser (UKU) Side Effect Rating Scale (Lingjaerde, et al., 1987 Acta Psychiatr Scand Suppl 334:1-100). In conjunction with UKU ratings, patient's vital signs and body weight were monitored throughout the study.

[2] = system: patient positive for anti-NR1 NMDAR antibodies; experiment: Positive and Negative Syndrome Scale (PANSS), D-serine clinical trial; format: in vivo, human; conditions: for PANSS Negative: week 0 score 18; for PANSS Positive: week 0 score 24; for PANSS General: week 0 score 55; for PANSS Total: week 0 score 97
Excerpt: as §1

Q: How did the “Quality of life of the patient” value ([1]; during treatment with DSR) turn out when `N[C@H](CO)C(=O)O` [D-serine] was run?
A: improved considerably

Q: And the “Reduction in reported symptoms and side effects (QLS)” value ([1]; end of the 6 week treatment period vs baseline)?
A: ~3 times

Q: And the “QLS Symptoms/side-effects” value ([1]; study week 2)?
A: 9.38

Q: And the “QLS Motivation/energy” value ([1]; study week 2)?
A: 42.86

Q: What about the “QLS Psychosocial” value ([1]; study week 2 of adjuvant D-serine) of the same molecule?
A: 55

Q: What about the “QLS Symptoms/side-effects” value ([1]; study week 4) of the same molecule?
A: 9.38

Q: And the “QLS Motivation/energy” value ([1]; study week 4)?
A: 42.86

Q: And the “QLS Psychosocial” value ([1]; study week 4 of adjuvant D-serine)?
A: 50

Q: What about the “QLS Symptoms/side-effects” value ([1]; study week 6) of the same molecule?
A: 3.13

Q: What about the “QLS Motivation/energy” value ([1]; study week 6) of the same molecule?
A: 42.86

Q: What about the “QLS Psychosocial” value ([1]; study week 6 of adjuvant D-serine) of the same molecule?
A: 38.33

Q: What about the “PANSS positive, negative and general psychopathology symptom domains” value ([2]; during treatment with DSR) of the same molecule?
A: improved

Q: What about the “Total PANSS score lower by the end of the study” value ([2]; end of study vs baseline total score of 97) of the same molecule?
A: 17%

Q: And the “PANSS Negative” value ([2]; study week 2)?
A: 19

Q: What about the “PANSS Positive” value ([2]; study week 2) of the same molecule?
A: 21

Q: What about the “PANSS General” value ([2]; study week 2) of the same molecule?
A: 54

Q: And the “PANSS Total” value ([2]; study week 2)?
A: 96

Q: And the “PANSS Negative” value ([2]; study week 4)?
A: 17

Q: And the “PANSS Positive” value ([2]; study week 4)?
A: 21

Q: What about the “PANSS General” value ([2]; study week 4) of the same molecule?
A: 51

Q: What about the “PANSS Total” value ([2]; study week 4) of the same molecule?
A: 89

Q: What about the “PANSS Negative” value ([2]; study week 6) of the same molecule?
A: 16

Q: And the “PANSS Positive” value ([2]; study week 6)?
A: 19

Q: What about the “PANSS General” value ([2]; study week 6) of the same molecule?
A: 45

Q: And the “PANSS Total” value ([2]; study week 6)?
A: 80
